Assay results published in paper PMC8317065, “UPLC-MS/MS Method for Analysis of Endocannabinoid and Related Lipid Metabolism in Mouse Mucosal Tissue” (Frontiers in Physiology, 2021).

Tested on: MAG biosynthesis (DGL)
Test: THL oral gavage: levels of MAGs in jejunum mucosa, lung and plasma
Assay type: in vivo, mouse
Method: Adult C57BL/6J male mice were food-deprived for 24 h prior to harvest with ad libitum access to water. To prevent coprophagia, animals were maintained on elevated wire-bottom cages for a 72-hour acclimation period and during the 24-hour food deprivation. One hour prior to harvest, mice received an oral gavage (100 μL of 10 mg/mL) of the DGL inhibitor, THL, in polyethylene glycol (PEG) or PEG alone as control. Jejunum intestinal epithelium and lungs were harvested as described above (see section “Tissue Harvest and Preparation for Enzyme Assays”).
Frozen tissue samples were weighed and homogenized in 1.0 mL of methanol containing the internal standards [^2H5]-2-AG (500 pmol), [^2H4]-AEA (1 pmol), and [^2H4]-OEA (10 pmol). Lipids were extracted using chloroform (2.0 mL) prior to being washed with 1.0 mL 0.2-micron ultra-purified water. Following centrifugation (1,500 × g, 15 min, 4°C), the lower organic phase was collected and dried under N2 steam (99.998% pure). A second chloroform wash (1.0 mL) was then performed followed by another centrifugation (1,500 × g, 15 min, 4°C) and collection of the lower phase. Samples were reconstituted in 2.0 mL of chloroform and purified via open-bed silica gel column chromatography. Columns were washed with a 9:1 chloroform:methanol mixture to elute MAGs and FAEs for collection. Collected eluates were dried under N2 steam (99.998% pure) and resuspended in 0.2 mL of methanol:chloroform (1:1) prior to analysis via UPLC-MS/MS (see section “Quantitation of MAGs and FAEs”).
Data was acquired using equipment described above (see section “UPLC-MS/MS Detection of Analytes”) and using the elution protocol described above (see section “Quantitation of MAG Biosynthetic Enzyme Activity Assay Products”). Cone voltage and collision energy for each analyte are as follows, respectively: AEA = 30 v, 14 v; [^2H4]-AEA = 26 v, 16v; OEA = 28 v, 16 v; [^2H4]-OEA = 48 v, 14 v; DHEA = 30 v, 50 v; 2-AG (20:4) = 30 v, 12 v; [^2H5]-2-AG = 25 v, 44v; 2-DG (22:6) = 34 v, 14 v; 2-PG (16:0) = 18 v, 10 v; 2-OG (18:1) = 42 v, 10 v; 2-LG (18:2) = 30 v, 10 v. MS/MS detection was in positive ion mode and capillary voltage set at 0.1 kV. Extracted ion chromatograms were used to quantify AEA (m/z = 348.3 > 62.0), [^2H4]-AEA (m/z = 352.3 > 66.1), OEA (m/z = 326.4 > 62.1), [^2H4]-OEA (m/z = 330.4 > 66.0), DHEA (m/z = 372.3 > 91.0), 2-AG (m/z = 379.3 > 287.3), [^2H5]-2-AG (m/z = 384.3 > 93.4), 2-DG (m/z = 403.3 > 311.1), 2-PG (m/z = 331.3 > 239.3), 2-OG (m/z = 357.4 > 265.2), and 2-LG (m/z = 355.3 > 263.3). Quantitation occurred using a stable isotope dilution method to detect protonated adducts of the ions [M + H] + in MRM mode. Acyl migration is known to occur in many MAG species following silica-gel purification, therefore the sum of 1-AG and 2-AG, 1-PG and 2-PG, 1-OG and 2-OG, and 1-DG and 2-DG are reported ([Stella et al., 1997]). The established lower limit of quantitation (LLOQ: signal to noise ratio >10) for 2-AG, 2-DG, 2-PG, 2-OG, and 2-LG was 0.5 pmol. The LLOQ for AEA, OEA, and DHEA was 0.008 pmol.

[1] = THL 1 mg oral, 1 h prior to tissue harvest

CCCCCCCCCCC[C@@H](C[C@@H]1OC(=O)[C@H]1CCCCCC)OC(=O)[C@H](CC(C)C)NC=O [THL, tetrahydrolipstatin]
2-LG level in lung (THL 1 mg oral gavage 1 h prior to harvest, vehicle 0.51 ± 0.10): 1.13 ± 0.35 nmol/g
2-DG level in lung (THL 1 mg oral gavage 1 h prior to harvest, vehicle 1.17 ± 0.07): 1.02 ± 0.07 nmol/g
2-OG level in lung (THL 1 mg oral gavage 1 h prior to harvest, vehicle 1.81 ± 0.13): 2.25 ± 0.37 nmol/g
2-OG level in plasma (THL 1 mg oral gavage 1 h prior to harvest, vehicle 2.71 ± 0.68): 1.53 ± 0.22 pmol/mL
2-PG level in lung (THL 1 mg oral gavage 1 h prior to harvest, vehicle 3.15 ± 0.26): 2.51 ± 0.15 nmol/g
2-AG level in lung (THL 1 mg oral gavage 1 h prior to harvest, vehicle 4.47 ± 0.44): 3.73 ± 0.37 nmol/g
2-AG level in plasma (THL 1 mg oral gavage 1 h prior to harvest, vehicle 31.59 ± 3.93): 29.34 ± 2.18 pmol/mL
2-DG level in plasma (THL 1 mg oral gavage 1 h prior to harvest, vehicle 44.25 ± 11.63): 32.82 ± 1.67 pmol/mL
2-PG level in plasma (THL 1 mg oral gavage 1 h prior to harvest, vehicle 46.63 ± 4.97): 51.99 ± 9.87 pmol/mL
2-LG level in plasma (THL 1 mg oral gavage 1 h prior to harvest, vehicle 156.32 ± 27.64): 105.12 ± 11.41 pmol/mL
effect on levels of MAGs in lung vs vehicle [1]: no significant changes
effect on plasma MAGs vs vehicle [1]: No significant changes
effect on levels of all MAGs in jejunum mucosa vs vehicle (THL 1 mg oral, 1 h prior to tissue harvest, 24 h food deprived mice): reduced
2-DG level in jejunum mucosa (mice food deprived 24 h, THL 1 mg oral gavage 1 h prior to harvest, vehicle 7.53 ± 1.40): 0.85 ± 0.13 nmol/g
2-PG level in jejunum mucosa (mice food deprived 24 h, THL 1 mg oral gavage 1 h prior to harvest, vehicle 13.52 ± 2.60): 4.91 ± 0.51 nmol/g
2-AG level in jejunum mucosa (mice food deprived 24 h, THL 1 mg oral gavage 1 h prior to harvest, vehicle 45.81 ± 7.02): 8.04 ± 1.52 nmol/g
2-OG level in jejunum mucosa (mice food deprived 24 h, THL 1 mg oral gavage 1 h prior to harvest, vehicle 100.71 ± 28.93): 5.56 ± 1.10 nmol/g
2-LG level in jejunum mucosa (mice food deprived 24 h, THL 1 mg oral gavage 1 h prior to harvest, vehicle 194.08 ± 40.11): 24.61 ± 7.48 nmol/g
